Results on 8 compounds are retold here after patent US20240174684A1, “INHIBITORS OF cGAS ACTIVITY AS THERAPEUTIC AGENTS” (BELLBROOK LABS, LLC, priority 2021, published 2024).

The term IC50 denotes the point on the concentration scale where inhibition reaches its midpoint.

Structures are written as SMILES. Where two headings read alike, the source gives them in different places. Where only a bound is given, the exact number is not on record here.

Data set [1] deals with MDCK cells expressing human MDR1 (P-glycoprotein). In words: MDCK-MDR1 permeability A→B. In kind it is in vitro ADME, Canine. As to the method: ADME studies: Compound A and the compounds of the disclosure were tested for aqueous solubility (KSOL), metabolic stability (human and mouse […]) and permeability (Caco-2 and/or MDR1-MDCK cells) to provide an initial indication of oral bioavailability.
The favorable physicochemical properties are reflected in promising results in in vitro ADME tests. […] Metabolic stability, which was routinely measured with mouse and human hepatocytes, is outstanding, with t, greater than 2 hours for all of the compounds of the disclosure in which it has been measured. Cell permeability was measured using MDCK cells expressing human MDR1 (P-glycoprotein) to assess passive permeability as well as active transport out of the cell. […] Numerous compounds in Table 1 meet these permeability criteria, which is consistent with their design for TPSA <140 Å^2 and increased lipophilicity.
The MDCK-MDR1 permeability A ->B is shown in Table 2 below, where A represents 5-10 cm/s×10^−6; B represents 1-5 cm/s×10^−6; and C represents <1 cm/ss×10^−6. The metabolic stability half time, in both mouse and human hepatocytes, is also shown in Table 2 below, where A′ represents 100-200 minutes; B′ represents 200-300 minutes; and C′ represents >300 minutes.

The next data set addresses cGAS (Homo sapiens, UniProt Q8N884). In words: Transcreener cGAS enzymatic assay (FP). In kind it is biochemical. As to the method: Structural, biochemical and biophysical analysis and selectivity profiling: Potency and MOA studies, including Mn^2+ sensitivity, were performed using the Transcreener cGAS enzymatic assay, which is manufactured at BellBrook Labs (Fitchburg, Wisconsin, USA). This homogenous cGAS enzymatic assay was developed with fluorescence polarization (FP) and time-resolved Forster resonance energy transfer (TR-FRET) readouts, as described in International Patent Publication WO 2020/142729, incorporated by reference herein in its entirety. Plates are read on a PHERAstar FSX multimode reader (BMG). The compounds of the disclosure were tested for inhibition of cGAS ([…]) using this cGAS enzymatic assay under standard conditions (100 μM ATP and GTP, 62.5 nM bp ISD, 60 minute reactions), high ATP and GTP (1 mM) to mimic physiological conditions, in the presence of 200 μM MnCl2, and with mouse cGAS under standard conditions.
The IC50 values for FP under standard and under physiological conditions were determined for several exemplary compounds of the invention. The relative activities for FP Standard IC50 are shown in Table 2 below, where A represents <50 nM; B represents 50-100 nM; C represents 100-200 nM; D represents 200 nM-1μM; and E represents 1-10 μM. For the relative activities for FP Physiological IC50, A′ represents <200 nM; B′ represents 200-500 nM; C′ represents 500 nM-1μM; D′ represents 1-5 μM; and E′ represents >5 μM.

Data set [2] concerns IFNβ production in THP-1 cells. Kind of data set: IFNβ ELISA in THP-1 cells. In kind it is cell-based, human. As to conditions: Homo sapiens; THP-1 cells. An excerpt:
Cellular assays: The human monocyte cell line THP-1 and human primary PBMCs were used to evaluate the cellular activity of compounds with good biochemical potency. These cells produce a robust cGAS/STING-dependent type I IFN response when stimulated with dsDNA and other pathogen-associated molecular patterns, which was detected using a standard ELISA for IFNβ (R&D Systems). The TBK1 inhibitor, BX-795, which acts downstream of cGAS/STING, was used as a probe.
CETSA was also used to confirm that the compounds are binding to cGAS in cells; THP-1 cells are used for this analysis. Compounds were tested in dose response mode by incubating with cells for 1.5 hours at 37° C., followed by pelleting and re-suspending in PBS, heating to 51.5° C. for 3 min and cooling to room temp. Cells were then lysed, debris, including denatured cGAS, was pelleted and the supernatant was analyzed for soluble cGAS by Western Blot using anti-cGAS primary Ab (Cell Signaling). Band intensity was analyzed using Image J software. Stimulation with cGAMP directly activates STING, circumventing cGAS; this was used to determine if compounds had effects on downstream components of cGAS/STING signaling. The IFN-6 ELISA was used as the primary measure of cellular potency and selectivity (Table 3) and used the reporter gene assays for assessing off-target activity with other pattern recognition receptors.
The ICso values for IFNB ELISA stimulated with THP-1, PBMC, DNA, and cGAMP were determined for several exemplary compounds of the invention, and are provided in Table 3 where A represents <1 μM; B represents 1-2.5 μM; C represents 2.5-10 μM; D represents 10-20 μM; and E represents >20 μM.
In general terms: In an ELISA, binding on a coated surface is turned into a signal by an enzyme label.

[3] abbreviates: high ATP and GTP (1 mM) to mimic physiological conditions, read-out: IC50 FP Physiological.
Where [4] appears, read: standard conditions: 100 μM ATP and GTP, 62.5 nM bp ISD, 60 minute reactions, read-out: IC50 FP Standard.

Chain of cGAS (Q8N884 whole entry): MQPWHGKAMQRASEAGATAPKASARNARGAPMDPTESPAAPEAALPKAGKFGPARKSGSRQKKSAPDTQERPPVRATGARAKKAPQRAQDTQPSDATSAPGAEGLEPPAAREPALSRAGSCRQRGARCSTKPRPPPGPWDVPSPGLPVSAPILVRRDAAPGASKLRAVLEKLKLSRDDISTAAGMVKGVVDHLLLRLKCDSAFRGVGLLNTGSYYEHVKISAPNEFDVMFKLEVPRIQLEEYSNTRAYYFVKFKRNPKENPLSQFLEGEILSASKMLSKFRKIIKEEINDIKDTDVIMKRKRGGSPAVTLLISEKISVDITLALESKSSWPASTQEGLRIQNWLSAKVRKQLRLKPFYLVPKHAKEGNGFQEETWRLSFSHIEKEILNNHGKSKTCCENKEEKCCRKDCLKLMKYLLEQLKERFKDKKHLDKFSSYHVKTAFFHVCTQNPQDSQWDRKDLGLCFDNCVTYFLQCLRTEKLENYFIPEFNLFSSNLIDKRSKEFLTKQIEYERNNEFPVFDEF

Regarding `Cc1nc(N2C[C@@H](CC(=O)Nc3ccccc3C)C[C@H]2C(=O)O)c2oc3ccccc3c2n1` [Compound 17, (2S,4R)-1-(2-methylbenzofuro[3,2-d]pyrimidin-4-yl)-4-(2-oxo-2-(o-tolylamino)ethyl)pyrrolidine-2-carboxylic acid], the “MDCK-MDR Permeability A→B” value in data set [1] was “C (C represents <1 cm/ss×10^−6)”. The IC50 on cGAS (setting [3]) was above 5 µM; on cGAS (setting [4]), 0.2 to 1 µM; in data set [2], above 20 µM.
Taken in the same sequence, the figures for `Cc1nc(N2C[C@@H](CC(=O)Nc3ccc(F)cc3)C[C@H]2C(=O)O)c2oc3ccccc3c2n1` [Compound 18, (2S,4R)-4-(2-((4-fluorophenyl)amino)-2-oxoethyl)-1-(2-methylbenzofuro[3,2-d]pyrimidin-4-yl)pyrrolidine-2-carboxylic acid] were “C (C represents <1 cm/ss×10^−6)”, 1 to 5 µM, 0.2 to 1 µM and above 20 µM.
Taken in the same sequence, the figures for `Cc1nc(N2C[C@@H](CC(=O)Nc3cccc4[nH]ncc34)C[C@H]2C(=O)O)c2oc3ccccc3c2n1` [Compound 28, (28.4R)-4-(2-((1H-indazol-4-yl)amino)-2-oxoethyl)-1-(2-methylbenzofuro[3,2-d]pyrimidin-4-yl)pyrrolidine-2-carboxylic acid] were “C (C represents <1 cm/ss×10^−6)”, 1 to 5 µM, 0.2 to 1 µM and above 20 µM.
As to `Cc1nc(N2C[C@@H](CC(=O)Nc3ccc4nc[nH]c4c3)C[C@H]2C(=O)O)c2oc3ccccc3c2n1` [Compound 29, (2S,4R)-4-(2-((1H-benzo[d]imidazol-6-yl)amino)-2-oxoethyl)-1-(2-methylbenzofuro[3,2-d]pyrimidin-4-yl)pyrrolidine-2-carboxylic acid], the “MDCK-MDR Permeability A→B” value in data set [1] is given as “C (C represents <1 cm/ss×10^−6)”. Also, the IC50 on cGAS (setting [3]) is 0.5 to 1 µM; at cGAS (setting [4]), 0.1 to 0.2 µM; in data set [2], above 20 µM.
For the compound `Cc1nc(N2C[C@@H](CC(=O)Nc3ccc4cn[nH]c4c3)C[C@H]2C(=O)O)c2oc3ccccc3c2n1` [Compound 30, (28.4R)-4-(2-((1H-indazol-6-yl)amino)-2-oxoethyl)-1-(2-methylbenzofuro[3,2-d]pyrimidin-4-yl)pyrrolidine-2-carboxylic acid], the “MDCK-MDR Permeability A→B” value in data set [1] is “C (C represents <1 cm/ss×10^−6)”. Besides, the IC50 is 1 to 5 µM at cGAS (setting [3]), 0.1 to 0.2 µM at cGAS (setting [4]) and above 20 µM in data set [2].
For `Cc1nc(N2C[C@@H](CC(=O)Nc3ccc(-c4cccnn4)cc3)C[C@H]2C(=O)O)c2oc3ccccc3c2n1` [Compound 44, (2S,4R)-1-(2-methylbenzofuro[3,2-d]pyrimidin-4-yl)-4-(2-oxo-2-((4-(pyridazin-3-yl)phenyl)amino)ethyl)pyrrolidine-2-carboxylic acid], in data set [1], the “MDCK-MDR Permeability A→B” value is reported as “C (C represents <1 cm/ss×10^−6)”. Besides, the results for the IC50 (at cGAS (setting [3]); on cGAS (setting [4]); in data set [2]) were 0.2 to 0.5 µM, below 0.05 µM and above 20 µM, respectively.
For `Cc1nc(N2C[C@@H](CC(=O)Nc3ccc(Cc4ccccn4)cc3)C[C@H]2C(=O)O)c2oc3ccccc3c2n1` [Compound 56, (2S,4R)-1-(2-methylbenzofuro[3,2-d]pyrimidin-4-yl)-4-(2-oxo-2-((4-(pyridin-2-ylmethyl)phenyl)amino)ethyl)pyrrolidine-2-carboxylic acid], the “MDCK-MDR Permeability A→B” value in data set [1] is recorded as “C (C represents <1 cm/ss×10^−6)”. Moreover, the IC50 on cGAS (setting [3]) is 1 to 5 µM; on cGAS (setting [4]), 0.2 to 1 µM; in data set [2], above 20 µM.
Turning to `Cc1nc(N2C[C@@H](CC(=O)Nc3cccc(N4CCOCC4)c3)C[C@H]2C(=O)O)c2oc3ccccc3c2n1` [Compound 57, (2S,4R)-1-(2-methylbenzofuro[3,2-d]pyrimidin-4-yl)-4-(2-((3-morpholinophenyl)amino)-2-oxoethyl)pyrrolidine-2-carboxylic acid], the “MDCK-MDR Permeability A→B” value in data set [1] was “C (C represents <1 cm/ss×10^−6)”. The IC50 at cGAS (setting [3]) is 1 to 5 µM; at cGAS (setting [4]), 0.1 to 0.2 µM; in data set [2], above 20 µM.
